Article PMC3639963, “A New Class of Small Molecule Inhibitor of BMP Signaling” (PLoS ONE, 2013)

Key:
Experiment in all cases: Nanosyn kinase profiling
Assay type in all cases: biochemical
Settings in all cases: read-out: Percentage inhibition; for inhibition at 0.1 µM: 0.1 µM inhibitor; for inhibition at 1 µM: 1 µM inhibitor
CAMK2α = molecular target: T1, CAMK2α (Homo sapiens, UniProt Q9UQM7)
T1 construct: purchased Nanosyn (enzymatic panel); SGC in-house recombinant human kinases (DSF panel); Invitrogen (ALK1-6)
T1 sequence (Q9UQM7 whole entry): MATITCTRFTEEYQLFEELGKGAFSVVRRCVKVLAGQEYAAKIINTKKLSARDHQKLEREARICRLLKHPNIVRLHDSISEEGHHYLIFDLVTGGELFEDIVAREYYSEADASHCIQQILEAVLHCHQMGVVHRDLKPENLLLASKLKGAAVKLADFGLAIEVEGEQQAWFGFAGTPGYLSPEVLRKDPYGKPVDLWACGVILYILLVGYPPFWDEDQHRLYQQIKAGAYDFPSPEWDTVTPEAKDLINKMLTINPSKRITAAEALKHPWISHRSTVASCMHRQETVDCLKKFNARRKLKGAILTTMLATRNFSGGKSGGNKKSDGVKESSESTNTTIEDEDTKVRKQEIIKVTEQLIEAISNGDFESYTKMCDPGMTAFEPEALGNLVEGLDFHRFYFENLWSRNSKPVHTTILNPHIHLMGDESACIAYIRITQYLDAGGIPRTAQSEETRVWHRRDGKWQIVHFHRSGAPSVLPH
Outline: (§1)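 Percent inhibition of each kinase was measured with the inhibitor at 0.1 µM and at 1 µM, as part of a 200-kinase human selectivity panel.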

CDK1/cycB = molecular target: T2, CDK1/cycB (Homo sapiens, UniProt P06493)
T2 construct: purchased Nanosyn (enzymatic panel); SGC in-house recombinant human kinases (DSF panel); Invitrogen (ALK1-6)
T2 sequence (P06493 whole entry): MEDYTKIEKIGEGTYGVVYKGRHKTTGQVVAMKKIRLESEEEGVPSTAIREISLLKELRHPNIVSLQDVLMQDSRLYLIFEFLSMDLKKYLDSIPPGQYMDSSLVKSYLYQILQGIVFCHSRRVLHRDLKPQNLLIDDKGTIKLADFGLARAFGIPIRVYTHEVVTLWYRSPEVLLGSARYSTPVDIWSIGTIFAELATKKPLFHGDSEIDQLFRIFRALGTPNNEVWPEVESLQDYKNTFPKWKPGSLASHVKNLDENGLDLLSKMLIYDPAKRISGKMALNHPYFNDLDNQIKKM
T2 sequence (P14635 whole entry partner): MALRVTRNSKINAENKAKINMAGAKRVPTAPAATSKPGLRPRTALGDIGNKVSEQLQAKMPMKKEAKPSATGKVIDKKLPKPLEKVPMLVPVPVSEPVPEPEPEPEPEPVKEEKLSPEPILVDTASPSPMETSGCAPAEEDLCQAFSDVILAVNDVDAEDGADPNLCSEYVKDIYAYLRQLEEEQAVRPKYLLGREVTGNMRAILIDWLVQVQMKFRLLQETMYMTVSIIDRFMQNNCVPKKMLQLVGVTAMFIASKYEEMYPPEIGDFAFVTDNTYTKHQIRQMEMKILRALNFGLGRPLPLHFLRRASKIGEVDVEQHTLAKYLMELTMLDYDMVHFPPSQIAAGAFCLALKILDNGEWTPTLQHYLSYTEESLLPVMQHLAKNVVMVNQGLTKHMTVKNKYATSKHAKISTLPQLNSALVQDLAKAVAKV
Outline: as §1

CDK2/cycA = molecular target: T3, CDK2/cycA (Homo sapiens, UniProt P24941)
T3 construct: purchased Nanosyn (enzymatic panel); SGC in-house recombinant human kinases (DSF panel); Invitrogen (ALK1-6)
Outline: as §1

CLK3 = molecular target: T4, CLK3 (Homo sapiens, UniProt P49761)
T4 construct: purchased Nanosyn (enzymatic panel); SGC in-house recombinant human kinases (DSF panel); Invitrogen (ALK1-6)
T4 sequence (P49761 whole entry): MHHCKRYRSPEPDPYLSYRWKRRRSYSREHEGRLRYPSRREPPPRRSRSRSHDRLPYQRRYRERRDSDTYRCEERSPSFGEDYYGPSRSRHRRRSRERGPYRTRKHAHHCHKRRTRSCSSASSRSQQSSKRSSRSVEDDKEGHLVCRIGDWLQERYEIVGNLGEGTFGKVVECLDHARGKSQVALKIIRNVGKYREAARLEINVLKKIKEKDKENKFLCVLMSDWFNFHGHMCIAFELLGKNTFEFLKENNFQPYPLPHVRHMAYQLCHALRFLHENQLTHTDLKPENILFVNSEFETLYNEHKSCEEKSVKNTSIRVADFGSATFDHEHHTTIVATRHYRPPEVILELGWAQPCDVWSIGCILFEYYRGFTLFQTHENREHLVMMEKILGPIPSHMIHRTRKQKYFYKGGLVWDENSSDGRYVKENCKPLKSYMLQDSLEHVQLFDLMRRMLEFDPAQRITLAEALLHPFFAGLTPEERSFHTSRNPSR
Outline: as §1

CSK = molecular target: T5, CSK (Homo sapiens, UniProt P41240)
T5 construct: purchased Nanosyn (enzymatic panel); SGC in-house recombinant human kinases (DSF panel); Invitrogen (ALK1-6)
T5 sequence (P41240 whole entry): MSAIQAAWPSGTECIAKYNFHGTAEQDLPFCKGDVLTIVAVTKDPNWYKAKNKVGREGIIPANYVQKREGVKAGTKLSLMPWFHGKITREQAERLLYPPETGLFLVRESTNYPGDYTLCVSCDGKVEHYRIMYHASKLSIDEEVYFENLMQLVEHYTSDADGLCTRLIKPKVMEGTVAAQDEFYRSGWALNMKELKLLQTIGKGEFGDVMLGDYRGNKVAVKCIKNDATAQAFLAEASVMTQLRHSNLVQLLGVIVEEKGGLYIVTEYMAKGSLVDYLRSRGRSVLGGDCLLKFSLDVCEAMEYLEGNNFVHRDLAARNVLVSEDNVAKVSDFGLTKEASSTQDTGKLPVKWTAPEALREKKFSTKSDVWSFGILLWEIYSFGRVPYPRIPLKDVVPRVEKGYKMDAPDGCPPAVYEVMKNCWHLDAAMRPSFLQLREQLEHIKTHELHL
Outline: as §1

ERBB2 = molecular target: T6, ERBB2 (Homo sapiens, UniProt P04626)
T6 construct: purchased Nanosyn (enzymatic panel); SGC in-house recombinant human kinases (DSF panel); Invitrogen (ALK1-6)
Outline: as §1

GSK3α = molecular target: T7, GSK3α (Homo sapiens, UniProt P49840)
T7 construct: purchased Nanosyn (enzymatic panel); SGC in-house recombinant human kinases (DSF panel); Invitrogen (ALK1-6)
T7 sequence (P49840 whole entry): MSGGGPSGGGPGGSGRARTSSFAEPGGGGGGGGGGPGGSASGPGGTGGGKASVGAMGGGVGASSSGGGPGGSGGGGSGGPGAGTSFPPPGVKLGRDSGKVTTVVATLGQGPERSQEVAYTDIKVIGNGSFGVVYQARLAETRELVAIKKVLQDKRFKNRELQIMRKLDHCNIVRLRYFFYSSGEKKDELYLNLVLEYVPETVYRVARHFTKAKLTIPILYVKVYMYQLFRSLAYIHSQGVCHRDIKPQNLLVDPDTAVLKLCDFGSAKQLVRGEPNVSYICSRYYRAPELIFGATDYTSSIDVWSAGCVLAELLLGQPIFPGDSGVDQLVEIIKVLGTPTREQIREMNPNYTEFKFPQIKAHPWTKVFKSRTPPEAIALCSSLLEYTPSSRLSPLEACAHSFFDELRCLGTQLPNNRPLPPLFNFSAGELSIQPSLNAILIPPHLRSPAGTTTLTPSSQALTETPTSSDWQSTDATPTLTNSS
Outline: as §1

LYNB = molecular target: T8, LYNB (Homo sapiens, UniProt P07948)
T8 construct: purchased Nanosyn (enzymatic panel); SGC in-house recombinant human kinases (DSF panel); Invitrogen (ALK1-6)
T8 sequence (P07948 1-491 isoform P07948-2): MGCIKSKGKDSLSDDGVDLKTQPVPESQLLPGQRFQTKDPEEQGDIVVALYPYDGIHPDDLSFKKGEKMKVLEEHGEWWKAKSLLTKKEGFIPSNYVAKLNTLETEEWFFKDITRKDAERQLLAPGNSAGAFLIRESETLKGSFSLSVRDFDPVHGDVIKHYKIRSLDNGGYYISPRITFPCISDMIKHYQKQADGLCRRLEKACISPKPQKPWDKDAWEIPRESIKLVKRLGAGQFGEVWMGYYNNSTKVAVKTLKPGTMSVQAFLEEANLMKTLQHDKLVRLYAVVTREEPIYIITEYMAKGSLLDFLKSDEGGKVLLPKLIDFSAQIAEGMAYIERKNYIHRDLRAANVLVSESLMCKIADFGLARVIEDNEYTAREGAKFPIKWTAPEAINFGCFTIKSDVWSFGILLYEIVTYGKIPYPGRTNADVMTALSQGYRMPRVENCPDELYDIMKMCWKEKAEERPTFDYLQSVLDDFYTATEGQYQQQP
Outline: as §1

MAPKAPK2 = molecular target: T9, MAPKAPK2 (Homo sapiens, UniProt P49137)
T9 construct: purchased Nanosyn (enzymatic panel); SGC in-house recombinant human kinases (DSF panel); Invitrogen (ALK1-6)
T9 sequence (P49137 whole entry): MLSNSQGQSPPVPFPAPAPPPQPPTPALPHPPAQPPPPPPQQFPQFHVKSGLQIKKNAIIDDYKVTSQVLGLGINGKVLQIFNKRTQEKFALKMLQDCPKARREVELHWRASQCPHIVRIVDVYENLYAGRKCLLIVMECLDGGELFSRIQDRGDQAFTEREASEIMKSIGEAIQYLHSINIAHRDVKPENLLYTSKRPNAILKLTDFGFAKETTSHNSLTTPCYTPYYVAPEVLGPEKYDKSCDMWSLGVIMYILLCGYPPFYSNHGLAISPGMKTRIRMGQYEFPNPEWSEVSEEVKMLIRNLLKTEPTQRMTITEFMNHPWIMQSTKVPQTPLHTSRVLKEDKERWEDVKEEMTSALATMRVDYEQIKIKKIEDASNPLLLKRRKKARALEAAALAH
Outline: as §1

MST2 = molecular target: T10, MST2 (Homo sapiens, UniProt Q13188)
T10 construct: purchased Nanosyn (enzymatic panel); SGC in-house recombinant human kinases (DSF panel); Invitrogen (ALK1-6)
T10 sequence (Q13188 1-491): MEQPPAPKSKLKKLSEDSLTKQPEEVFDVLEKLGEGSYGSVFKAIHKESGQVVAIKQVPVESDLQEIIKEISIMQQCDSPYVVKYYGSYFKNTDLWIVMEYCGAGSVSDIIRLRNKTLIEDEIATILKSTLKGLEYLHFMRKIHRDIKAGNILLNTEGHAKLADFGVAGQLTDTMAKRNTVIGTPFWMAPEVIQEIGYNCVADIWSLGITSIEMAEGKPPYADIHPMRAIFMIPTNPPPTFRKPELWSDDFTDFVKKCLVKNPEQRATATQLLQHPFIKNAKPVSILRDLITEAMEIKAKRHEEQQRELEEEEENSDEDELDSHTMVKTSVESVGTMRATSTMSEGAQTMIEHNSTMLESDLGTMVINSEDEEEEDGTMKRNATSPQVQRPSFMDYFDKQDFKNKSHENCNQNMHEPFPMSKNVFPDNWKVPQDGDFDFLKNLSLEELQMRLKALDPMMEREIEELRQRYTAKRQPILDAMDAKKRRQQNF
Outline: as §1

PIM1 = molecular target: T11, PIM1 (Homo sapiens, UniProt P11309)
T11 construct: purchased Nanosyn (enzymatic panel); SGC in-house recombinant human kinases (DSF panel); Invitrogen (ALK1-6)
T11 sequence (P11309 whole entry): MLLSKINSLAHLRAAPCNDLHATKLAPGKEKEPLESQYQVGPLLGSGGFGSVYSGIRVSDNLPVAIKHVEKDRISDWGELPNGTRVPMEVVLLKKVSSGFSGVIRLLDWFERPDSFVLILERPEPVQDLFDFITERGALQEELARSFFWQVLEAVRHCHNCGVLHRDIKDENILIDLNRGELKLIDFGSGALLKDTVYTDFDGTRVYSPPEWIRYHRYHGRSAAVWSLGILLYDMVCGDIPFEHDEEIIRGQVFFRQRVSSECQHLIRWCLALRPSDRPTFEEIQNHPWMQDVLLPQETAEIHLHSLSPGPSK
Outline: as §1

PKCγ = molecular target: T12, PKCγ (Homo sapiens, UniProt P05129)
T12 construct: purchased Nanosyn (enzymatic panel); SGC in-house recombinant human kinases (DSF panel); Invitrogen (ALK1-6)
Outline: as §1

SGK3 = molecular target: T13, SGK3 (Homo sapiens, UniProt Q96BR1)
T13 construct: purchased Nanosyn (enzymatic panel); SGC in-house recombinant human kinases (DSF panel); Invitrogen (ALK1-6)
T13 sequence (Q96BR1 1-496): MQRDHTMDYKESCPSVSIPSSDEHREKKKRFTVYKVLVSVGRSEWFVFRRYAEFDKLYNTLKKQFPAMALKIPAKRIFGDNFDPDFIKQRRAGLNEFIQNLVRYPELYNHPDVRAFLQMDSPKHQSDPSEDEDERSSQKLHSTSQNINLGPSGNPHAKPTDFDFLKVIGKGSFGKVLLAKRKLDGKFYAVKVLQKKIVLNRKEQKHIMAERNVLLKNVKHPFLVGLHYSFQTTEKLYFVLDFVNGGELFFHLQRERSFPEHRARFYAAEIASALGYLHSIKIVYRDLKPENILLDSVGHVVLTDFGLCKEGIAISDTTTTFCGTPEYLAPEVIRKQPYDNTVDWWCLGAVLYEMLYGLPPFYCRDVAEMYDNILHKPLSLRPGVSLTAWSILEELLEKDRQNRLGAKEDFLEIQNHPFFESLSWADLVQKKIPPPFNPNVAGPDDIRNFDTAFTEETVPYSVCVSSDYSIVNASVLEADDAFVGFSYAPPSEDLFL
Outline: as §1

SRPK1 = molecular target: T14, SRPK1 (Homo sapiens, UniProt Q96SB4)
T14 construct: purchased Nanosyn (enzymatic panel); SGC in-house recombinant human kinases (DSF panel); Invitrogen (ALK1-6)
Outline: as §1

TSSK1 = molecular target: T15, TSSK1 (Homo sapiens, UniProt Q9BXA7)
T15 construct: purchased Nanosyn (enzymatic panel); SGC in-house recombinant human kinases (DSF panel); Invitrogen (ALK1-6)
T15 sequence (Q9BXA7 1-367): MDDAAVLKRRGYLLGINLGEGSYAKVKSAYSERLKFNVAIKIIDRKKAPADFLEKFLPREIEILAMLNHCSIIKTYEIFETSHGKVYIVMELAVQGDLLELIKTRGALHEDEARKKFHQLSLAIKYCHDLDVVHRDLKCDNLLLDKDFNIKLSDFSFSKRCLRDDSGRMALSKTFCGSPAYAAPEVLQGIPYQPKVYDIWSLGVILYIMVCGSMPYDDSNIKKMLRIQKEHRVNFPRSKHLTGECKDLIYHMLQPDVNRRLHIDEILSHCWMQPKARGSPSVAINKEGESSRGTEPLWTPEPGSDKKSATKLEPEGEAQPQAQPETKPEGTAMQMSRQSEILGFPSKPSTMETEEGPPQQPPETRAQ
Outline: as §1

SMILES: COc1cc(-c2cc(-c3cccc(O)c3)cnc2N)cc(OC)c1OC [K02288, 3-[6-amino-5-(3,4,5-trimethoxy-phenyl)-pyridin-3-yl]-phenol]
- inhibition at 0.1 µM (CAMK2α): -2%
- inhibition at 1 µM (CAMK2α): -2%
- inhibition at 0.1 µM (CDK1/cycB): 1%
- inhibition at 1 µM (CDK1/cycB): 1.5%
- inhibition at 0.1 µM (CDK2/cycA): 0%
- inhibition at 1 µM (CDK2/cycA): 0%
- inhibition at 0.1 µM (CLK3): 1.4%
- inhibition at 1 µM (CLK3): 1.5%
- inhibition at 0.1 µM (CSK): 3.2%
- inhibition at 1 µM (CSK): 13%
- inhibition at 0.1 µM (ERBB2): -5%
- inhibition at 1 µM (ERBB2): -3%
- inhibition at 0.1 µM (GSK3α): 0.6%
- inhibition at 1 µM (GSK3α): 2.1%
- inhibition at 0.1 µM (LYNB): 6%
- inhibition at 1 µM (LYNB): 43%
- inhibition at 0.1 µM (MAPKAPK2): -2%
- inhibition at 1 µM (MAPKAPK2): -1%
- inhibition at 0.1 µM (MST2): -2%
- inhibition at 1 µM (MST2): -1%
- inhibition at 0.1 µM (PIM1): 0.2%
- inhibition at 1 µM (PIM1): 1.5%
- inhibition at 0.1 µM (PKCγ): -4%
- inhibition at 1 µM (PKCγ): -1%
- inhibition at 0.1 µM (SGK3): -2%
- inhibition at 1 µM (SGK3): -1%
- inhibition at 0.1 µM (SRPK1): 3.2%
- inhibition at 1 µM (SRPK1): 2.7%
- inhibition at 0.1 µM (TSSK1): -1%
- inhibition at 1 µM (TSSK1): -2%

SMILES: c1ccc2c(-c3cnn4cc(-c5ccc(N6CCNCC6)cc5)cnc34)ccnc2c1 [LDN-193189]
- inhibition at 0.1 µM (CAMK2α): 0%
- inhibition at 1 µM (CAMK2α): -8%
- inhibition at 0.1 µM (CDK1/cycB): 0.5%
- inhibition at 1 µM (CDK1/cycB): 5%
- inhibition at 0.1 µM (CDK2/cycA): 1.2%
- inhibition at 1 µM (CDK2/cycA): 4.1%
- inhibition at 0.1 µM (CLK3): 0.5%
- inhibition at 1 µM (CLK3): 2.6%
- inhibition at 0.1 µM (CSK): 3.3%
- inhibition at 1 µM (CSK): 6%
- inhibition at 0.1 µM (ERBB2): 2.1%
- inhibition at 1 µM (ERBB2): 2.1%
- inhibition at 0.1 µM (GSK3α): 3.2%
- inhibition at 1 µM (GSK3α): 1.1%
- inhibition at 0.1 µM (LYNB): 7.4%
- inhibition at 1 µM (LYNB): 34%
- inhibition at 0.1 µM (MAPKAPK2): 0.7%
- inhibition at 1 µM (MAPKAPK2): 0%
- inhibition at 0.1 µM (MST2): 5.1%
- inhibition at 1 µM (MST2): 6%
- inhibition at 0.1 µM (PIM1): -1%
- inhibition at 1 µM (PIM1): -1%
- inhibition at 0.1 µM (PKCγ): 2.1%
- inhibition at 1 µM (PKCγ): 4.1%
- inhibition at 0.1 µM (SGK3): 1.6%
- inhibition at 1 µM (SGK3): 2.3%
- inhibition at 0.1 µM (SRPK1): -1%
- inhibition at 1 µM (SRPK1): -2%
- inhibition at 0.1 µM (TSSK1): 3.5%
- inhibition at 1 µM (TSSK1): 5.2%
